Reference: US6197811A, “Cytokine production inhibitors” (Terragen Discovery Inc., priority 1998, dated 2001)

test system: IL-1β production in human peripheral blood mononuclear cells (PBMC); experiment: LPS-induced IL-1β release from human peripheral blood mononuclear cells (PBMC), ELISA; type: cell-based; conditions: 1 ng/ml LPS, 18 hours at 37° C., IL-1β by ELISA
Procedure: IL-1 Release from Human Peripheral Blood Mononuclear Cells (PBMC)
Human peripheral blood mononuclear cells (PBMC) were separated from Buffy coats obtained from normal healthy donors on Lymphoprep. […] Cells were incubated for 18 hours at 37° C. with 5% CO2 and the cell culture supernatants harvested and stored at -70° C. Effects on the production of IL-1β were determined by using an ELISA.

| SMILES | IC50 [nM] |
| --- | --- |
| C/C=C/[C@@H]1OC(=O)C=C[C@H]1OC(=O)c1ccccc1 [Example 1, ((2S,3R)-3,6-Dihydro-6-oxo-(2E-prop-1-enyl-2H-pyran-3-yl)) benzoate] | 2400 |
| C/C=C/[C@@H]1OC(=O)C=C[C@H]1OC(=O)c1ccc(-c2ccccc2)cc1 [Example 1a, ((2S,3R)-3,6-Dihydro-6-oxo-(2E-prop-1-enyl-2H-pyran-3-yl))-4-biphenyl carboxylate] | > 7500 |
| C/C=C/[C@@H]1OC(=O)C=C[C@H]1OC(=O)c1ccc2c(c1)C(=O)c1ccccc1-2 [Example 1b, ((2S,3R)-3,6-Dihydro-6-oxo-(2E-prop-1-enyl-2H-pyran-3-yl))-9-oxo-9H-fluorene carboxylate] | 4500 |
| C/C=C/[C@@H]1OC(=O)C=C[C@H]1OC(=O)c1cccc2c1C(=O)c1ccccc1-2 [Example 1c] | 4000 |
| C/C=C/[C@H]1OC(=O)C=C[C@@H]1NCc1ccccc1 [Example 2a, (5S,6R)-5-benzylamino-6E-prop-1-ene-5,6-dihydro-2H-pyran-2-one] | 12000 |
| C/C=C/[C@H]1OC(=O)C=C[C@@H]1NCc1ccc(-c2ccccc2)cc1 [Example 2b, (5S,6R)-5-(4-biphenylmethylamino)-6E-prop-1-ene-5,6-dihydro-2H-pyran-2-one] | 6900 |
| C/C=C/[C@H]1OC(=O)C=C[C@@H]1NCC1c2ccccc2-c2ccccc21 [Example 2c, (5S,6R)-5-(2-9H-fluorenemethylamino)-6E-prop-1-ene-5,6-dihydro-2H-pyran-2-one] | 3600 |
| C/C=C/[C@@H]1OC(=O)C=C[C@H]1NC(=O)c1ccccc1 [Example 3, ((2S,3R)-3,6-Dihydro-6-oxo-(2E-prop-1-enyl-2H-pyran-3-yl)) phenylamide] | 9700 |
| C/C=C/[C@@H]1OC(=O)C=C[C@H]1NC(=O)c1ccc(-c2ccccc2)cc1 [Example 3a, ((2S,3R) -3,6-Dihydro-6-oxo-(2E-prop-1-enyl-2H-pyran-3-yl) )4-biphenylamide] | 1000 |
| C/C=C/[C@@H]1OC(=O)C=C[C@H]1NC(=O)c1cccc2c1-c1ccccc1C2=O [Example 3b, ((2S,3R)-3,6-Dihydro-6-oxo-(2E-prop-1-enyl-2H-pyran-3-yl))-9-oxo-9H-fluorene-4-amide] | 10000 |
| C/C=C/[C@@H]1OC(=O)C=C[C@H]1NC(=O)c1ccc(-c2ccccc2)cc1 [Example 3c, ((2S,3R)-3,6-Dihydro-6-oxo-(2E-prop-1-enyl-2H-pyran-3-yl))-4-biphenylamide] | 1300 |
| C/C=C/[C@@H]1OC(=O)C=C[C@H]1NC(=O)c1cccc2c1-c1ccccc1C2=O [Example 3d, ((2S,3R)-3,6-Dihydro-6-oxo-(2E-prop-1-enyl-2H-pyran-3-yl))-9-oxo-9H-fluorene-4-amide] | 11300 |
| C/C=C/[C@@H]1OC(=O)C=C[C@H]1OC(=O)/C=C/C(C)=C/[C@@H](C)CCCCCC [Example 4, ((2S,3R)-3,6-Dihydro-6-oxo-(2E-prop-1-enyl-2H-pyran-3-yl))-(2E,4E)-4,6-dimethyldodecanoate] | 4000 |
| C/C=C/[C@@H]1OC(=O)C=C[C@@H]1OCOCCOC [Example 4a, (2S,3S)-5-(2-Methoxy-ethoxymethoxy)-6-(2E-prop-1-enyl)-5,6-dihydro-2H-pyran-2-one] | 8500 |
| C/C=C/[C@@H]1OC(=O)C=C[C@@H]1OCc1ccc(-c2ccccc2)cc1 [Example 4b, (2S,3S)-5-(4-Biphenylmethoxy)-6-(2E-prop-1-enyl)-5,6-dihydro-2H-pyran-2-one] | 400 |
| C/C=C/[C@@H]1OC(=O)C=C[C@@H]1OCc1ccccc1 [Example 4c, (2S,3S)-5-Benzyloxy-6-(2E-prop-1-enyl)-5,6-dihydro-2H-pyran-2-one] | 1200 |
| C/C=C/[C@@H]1OC(=O)C=C[C@@H]1OC(=O)/C=C/CCCCCCCCC [Example 5, ((2S,3S)-3,6-Dihydro-6-oxo-(2E-prop-1-enyl-2H-pyran-3-yl))dodeca-2E-enoate] | 2800 |

| SMILES | IC50 [nM] |
| --- | --- |
| C/C=C/[C@@H]1OC(=O)C=C[C@@H]1OC(=O)/C=C/c1ccco1 [Example 5a, ((2S,3S)-3,6-dihydro-6-oxo-(2E-prop-1-enyl-2H-yran-3-yl))-3-(2-furfuryl)acrylate] | 1200 |
| C/C=C/[C@@H]1OC(=O)C=C[C@@H]1OC(=O)c1ccc(-c2ccccc2)cc1 [Example 5b, ((2S,3S)-3,6-Dihydro-6-oxo-(2E-prop-1-enyl-2H-pyran-3-yl))-4-biphenylcarboxylate] | 300 |
| C/C=C/[C@@H]1OC(=O)C=C[C@@H]1OC(=O)c1ccc(-c2ccc(CC)cc2)cc1 [Example 5c, ((2S,3S)-3,6-Dihydro-6-oxo-(2E-prop-1-enyl-2H-pyran-3-yl))-4'-ethyl-4-biphenylcarboxylate] | 100 |
| C/C=C/[C@@H]1OC(=O)C=C[C@@H]1OC(=O)c1cccc2c1Cc1ccccc1-2 [Example 5d, ((2S,3S)-3,6-Dihydro-6-oxo-(2E-prop-1-enyl-2H-pyran-3-yl))-9H-fluorenecarboxylate] | 300 |
| C/C=C/[C@@H]1OC(=O)C=C[C@@H]1OC(=O)c1cccc2c1C(=O)c1ccccc1-2 [Example 5e, ((2S,3S)-3,6-Dihydro-6-oxo-(2E-prop-1-enyl-2H-pyran-3-yl))-9-oxo-9H-fluorene carboxylate] | 130 |
| C/C=C/[C@@H]1OC(=O)C=C[C@@H]1OC(=O)c1ccc2c(c1)C(=O)c1ccccc1-2 [Example 5f, ((2S,3S)-3,6-Dihydro-6-oxo-(2E-prop-1-enyl-2H-pyran-3-yl))-9-oxo-9H-fluorene-2-carboxylate] | 1200 |
| C/C=C/[C@@H]1OC(=O)C=C[C@@H]1OC(=O)Cc1ccc(-c2ccccc2)cc1 [Example 5g, ((2S,3S)-3,6-Dihydro-6-oxo-(2E-prop-1-enyl-2H-pyran-3-yl))-4-biphenylacetate] | 13400 |
| C/C=C/[C@@H]1OC(=O)C=C[C@@H]1OC(=O)Cc1ccccc1 [Example 5h, ((2S,3S)-3,6-Dihydro-6-oxo-(2E-prop-1-enyl-2H-pyran-3-yl))phenylacetate] | 1400 |
| C/C=C/[C@@H]1OC(=O)C=C[C@@H]1OC(=O)/C=C/c1cccc(C)c1 [Example 5i, ((2S,3S)-3,6-Dihydro-6-oxo-(2E-prop-1-enyl-2H-pyran-3-yl))-3m-tolylacrylate] | 1000 |
| C/C=C/[C@@H]1OC(=O)C=C[C@@H]1OC(=O)/C=C/c1ccc2ccccc2c1 [Example 5j, ((2S,3S)-3,6-Dihydro-6-oxo-(2E-prop-1-enyl-2H-pyran-3-yl))-3-(2-naphthyl)acrylate] | 700 |
| C/C=C/[C@@H]1OC(=O)C=C[C@@H]1OC(=O)c1ccc(CCCCC)cc1 [Example 5k, ((2S,3S)-3,6-Dihydro-6-oxo-(2E-prop-1-enyl-2H-pyran-3-yl))-4-pentylbenzoate] | 400 |
| C/C=C/[C@@H]1OC(=O)C=C[C@@H]1OC(=O)CCCCCCCCCCC [Example 5l, ((2S,3S)-3,6-Dihydro-6-oxo-(2E-prop-1-enyl-2H-pyran-3-yl))dodecanoate] | 8400 |
| C/C=C/[C@@H]1OC(=O)C=C[C@@H]1OC(=O)CCCCCCCCCCCCC [Example 5m, ((2S,3S)-3,6-Dihydro-6-oxo-(2E-prop-1-enyl-2H-20 pyran-3-yl))tetradodecanoate] | 5400 |
| CCCCCC[C@H](C)/C=C(C)/C=C/C(=O)O[C@H]1C=CC(=O)O[C@H]1/C=C/C(=O)OCC [Example 6, ((2S,3S)-3,6-Dihydro-6-oxo-(2E-3-oxo-3-ethoxyprop-1-enyl-2H-pyran-3-yl))-(2E,4E)-4,6-dimethyldodecadienoate] | 6000 |
| CCCCCC[C@H](C)/C=C(C)/C=C/C(=O)O[C@H]1C=CC(=O)O[C@H]1/C=C/C(=O)OCCC [Example 6a, ((2S,3S)-3,6-Dihydro-6-oxo-(2E-3-oxo-3-propoxyprop-1-enyl)-2H-pyran-3-yl)-(2E,4E)-4,6-dimethyldodecadienoate] | 1400 |
| CCCCCC[C@H](C)/C=C(C)/C=C/C(=O)O[C@H]1C=CC(=O)O[C@H]1/C=C/C(=O)OCCCC [Example 6b, ((2S,3S)-3,6-Dihydro-6-oxo-(2E-3-oxo-3-butoxyprop-1-enyl)-2H-pyran-3-yl)-(2E,4E)-4,6-dimethyldodecadienoate] | 1400 |
| CCCCCC[C@H](C)/C=C(C)/C=C/C(=O)O[C@H]1C=CC(=O)O[C@H]1/C=C/C(=O)NCc1ccccc1 [Example 6c, ((2S,3S)-3,6-Dihydro-6-oxo-(2E-3-oxo-3-benzylaminoprop-1-enyl)-2H-pyran-3-yl)-(2E,4E)-4,6-dimethyldodecadienoate] | > 9000 |
